Data reported in US20200095296A1, “USE OF PEPTIDES AS BIOMARKERS IN THE DIAGNOSIS, CONFIRMATION AND TREATMENT OF A NEUROLOGICAL DISORDER AND TCR AND/OR HLA IMMUNOPROFILING IN NEURODEGENERATIVE DISEASE” (THE TRUSTEES OF COLUMBIA UNIVERSITY IN THE CITY OF NEW YORK, priority 2017, published 2020).
Positions count from the first letter of the chain named. Read-outs that look alike come from different tables or passages of the source.

Legend:
DPB1*03:01 = molecular target: T1, DPB1*03:01 (Homo sapiens, UniProt P04440+P20036, A65V/A84D/A85E/E86D/F38Y/G113D/G114E/G40L/I94L/L37V/M105V/M116V/P115A/R125K/T199I); assay: competition binding assay, purified HLA DPB1*03:01; details: purified HLA, radiolabeled peptide competition; nM; read-out: binding to DPB1*03:01 (IC50)
T1 sequence (P20036 29-260): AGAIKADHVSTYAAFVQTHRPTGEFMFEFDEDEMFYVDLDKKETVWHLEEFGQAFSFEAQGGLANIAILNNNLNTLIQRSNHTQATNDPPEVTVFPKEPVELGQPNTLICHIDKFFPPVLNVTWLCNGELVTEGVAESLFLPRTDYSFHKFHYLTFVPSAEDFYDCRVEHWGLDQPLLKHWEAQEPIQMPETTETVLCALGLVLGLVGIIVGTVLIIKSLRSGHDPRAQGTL
T1 sequence (P04440 30-258 L37V/F38Y/G40L/A65V/A84D/A85E/E86D/I94L/M105V/G113D/G114E/P115A/M116V/R125K/T199I): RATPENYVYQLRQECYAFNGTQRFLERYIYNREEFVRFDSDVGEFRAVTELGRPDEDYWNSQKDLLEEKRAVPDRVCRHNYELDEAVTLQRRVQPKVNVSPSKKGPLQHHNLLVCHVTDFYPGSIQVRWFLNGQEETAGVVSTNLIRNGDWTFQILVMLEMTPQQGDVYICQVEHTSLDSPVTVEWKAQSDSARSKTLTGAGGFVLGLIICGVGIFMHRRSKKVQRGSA

DPB1*05:01 = molecular target: T2, DPB1*05:01 (Homo sapiens, UniProt P04440+P20036, A65V/A84E/F191V/F64L/G113D/G114E/K142R/L158P/M116V/M62Q/P115A/Q81R/R125K/T114A/T199I/T259P/V234M); assay: competition binding assay, purified HLA DPB1*05:01
T2 sequence (P20036 29-260 M62Q/Q81R/T114A/K142R/L158P/F191V/T259P): T1 sequence (P20036 29-260) with M34Q, Q53R, T86A, K114R, L130P, F163V, T231P
T2 sequence (P04440 30-258 F64L/A65V/A84E/G113D/G114E/P115A/M116V/R125K/T199I/V234M): T1 sequence (P04440 30-258 L37V/F38Y/G40L/A65V/A84D/A85E/E86D/I94L/M105V/G113D/G114E/P115A/M116V/R125K/T199I) with V8L, Y9F, L11G, F35L, D55E, E56A, D57E, L65I, V76M, V205M

DPB1*04:02 = molecular target: T3, DPB1*04:02 (Homo sapiens, UniProt P04440+P20036, A65V/A84D/A85E/L207M); assay: competition binding assay, purified HLA DPB1*04:02
T3 sequence (P04440 30-258 A65V/A84D/A85E/L207M): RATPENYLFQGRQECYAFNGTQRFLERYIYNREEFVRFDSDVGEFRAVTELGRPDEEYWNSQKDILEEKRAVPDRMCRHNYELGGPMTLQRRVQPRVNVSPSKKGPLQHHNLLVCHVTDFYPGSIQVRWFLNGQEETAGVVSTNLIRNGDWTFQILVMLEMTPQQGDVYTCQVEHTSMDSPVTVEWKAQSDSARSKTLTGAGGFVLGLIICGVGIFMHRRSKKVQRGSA
T3 sequence (P20036 29-260): T1 sequence (P20036 29-260)

DPB1*04:01 = molecular target: T4, DPB1*04:01 (Homo sapiens, UniProt P04440); assay: competition binding assay, purified HLA DPB1*04:01
T4 sequence (P04440 30-258): T3 sequence (P04440 30-258 A65V/A84D/A85E/L207M) with V36A, D55A, E56A, M178L
T4 sequence (P20036 29-260 partner): T1 sequence (P20036 29-260)

DPB1*02:01 = molecular target: T5, DPB1*02:01 (Homo sapiens, UniProt P04440+P20036, A65V/A84D/A85E/K98E); assay: competition binding assay, purified HLA DPB1*02:01
T5 sequence (P20036 29-260): T1 sequence (P20036 29-260)
T5 sequence (P04440 30-258 A65V/A84D/A85E/K98E): T3 sequence (P04440 30-258 A65V/A84D/A85E/L207M) with K69E, M178L

DRB5*01:01 = DRB5*01:01 (Homo sapiens, UniProt P01903+Q30154); assay: competition binding assay, purified HLA DRB5*01:01; details: purified HLA, radiolabeled peptide competition; nM; read-out: binding to DRB5*01:01 (IC50)
DRB4*01:01 = DRB4*01:01 (Homo sapiens, UniProt P01903+P13762, G164S); assay: competition binding assay, purified HLA DRB4*01:01; details: purified HLA, radiolabeled peptide competition; nM; read-out: binding to DRB4*01:01 (IC50)
PBMC = assay: IFNg/IL-5 dual ELISPOT after 14 day in vitro stimulation of PBMC with Tau peptides; format: cell-based, human; details: for PD % of Total Responders / PD Total SFC / PD Total Responders: PD donors; for % of total response / Average SFC per responder / Frequency of response / Total SFC per epitope: across all cohorts; for Total Responders / Total SFC: all three cohorts (PD, HC > 50, HC < 35); for HC < 35 Total Responders / HC < 35 Total SFC: healthy controls < 35 years old
Source text: It was investigated whether T cell responses against Tau were detectable in the PD and healthy control (HC) donors. To this end, a panel of overlapping peptides spanning through the entire sequence of the Tau protein was synthesized. Since it is known that the Tau protein is post-translationally modified (mainly by phosphorylation), in several instances phosphorylated peptides were also synthesized. In all, 55 non-modified 16-mers overlapping by 8 and 14 modified 16-mers were synthesized.
PD: n=16, peptides tested 14-16 times; HC above 50 years old denominated as age-matched: n=11 (9-11 times) and HC below 35 years old (HC Young): n=13 (10-13 times).
These peptides were tested utilizing the following assay strategy. Briefly, PBMC from each donor were stimulated in vitro for 14 days as described (Hinz, D., 2015) with pools of 10 to 16 peptides each. After 14 days, the T cell cultures were assayed with IFNg/IL-5 dual ELISPOT assays […]. Positive pools were deconvoluted at day 17 to identify the specific individual epitopes recognized.

[1] = purified HLA, radiolabeled peptide competition, nM, read-out: binding to DPB1*05:01 (IC50)
[2] = purified HLA, radiolabeled peptide competition, nM, read-out: binding to DPB1*04:02 (IC50)
[3] = purified HLA, radiolabeled peptide competition, nM, read-out: binding to DPB1*04:01 (IC50)
[4] = purified HLA, radiolabeled peptide competition, nM, read-out: binding to DPB1*02:01 (IC50)
[5] = healthy controls > 50 years old

Row | IC50 (DPB1*03:01) | IC50 (DPB1*05:01; [1]) | IC50 (DPB1*04:02; [2]) | IC50 (DPB1*04:01; [3]) | IC50 (DPB1*02:01; [4]) | Compound | PD/HC > 50 Ratio of % Responders (PBMC) | PD/HC > 50 Ratio of Response (PBMC) | HC > 50 % of Total Responders (PBMC) | HC > 50 Total SFC (PBMC; HC > 50, dominant epitopes) | PD % of Total Responders (PBMC) | PD Total SFC (PBMC; dominant epitopes) | % of total response (PBMC) | Average SFC per responder (PBMC) | Frequency of response (PBMC) | Total SFC per epitope (PBMC) | further results
1 | > 10000 nM | > 10000 nM | > 10000 nM | > 10000 nM | > 10000 nM | CSCC[C@H](NC(=O)[C@@H](N)CCC(=O)O)C(=O)N1CCC[C@H]1C(=O)N[C@@H](CO)C(=O)N[C@@H](CCC(=O)O)C(=O)N[C@@H](CCC(=O)O)C(=O)NCC(=O)N[C@@H](Cc1ccc(O)cc1)C(=O)N[C@@H](CCC(N)=O)C(=O)N[C@@H](CC(=O)O)C(=O)N[C@@H](Cc1ccc(O)cc1)C(=O)N[C@@H](CCC(=O)O)C(=O)N1CCC[C@H]1C(=O)N[C@@H](CCC(=O)O)C(=O)N[C@@H](C)C(=O)O |  |  |  |  |  |  |  |  |  |  | 
2 |  |  |  |  |  | CC(C)C[C@H](NC(=O)[C@@H](NC(=O)CNC(=O)[C@H](CCC(=O)O)NC(=O)[C@H](CCCCN)NC(=O)[C@@H](NC(=O)[C@@H](N)CCCCN)[C@@H](C)O)C(C)C)C(=O)N[C@@H](Cc1ccc(OP(=O)(O)O)cc1)C(=O)N[C@H](C(=O)NCC(=O)N[C@@H](CO)C(=O)N[C@@H](CCCCN)C(=O)N[C@H](C(=O)N[C@@H](CCCCN)C(=O)N[C@@H](CCC(=O)O)C(=O)O)[C@@H](C)O)C(C)C |  |  |  |  |  |  |  |  |  |  | IC50 (DPB1*05:01): 777 nM; IC50 (DPB1*04:02): 1600 nM; IC50 (DPB1*04:01): 937 nM; IC50 (DPB1*02:01): 620 nM
3 | > 10000 nM | > 10000 nM | > 10000 nM | > 10000 nM | > 10000 nM | CSCC[C@H](NC(=O)[C@H](CCC(=O)O)NC(=O)[C@H](Cc1ccc(O)cc1)NC(=O)[C@H](C)NC(=O)[C@H](CCC(=O)O)NC(=O)[C@H](CC(N)=O)NC(=O)[C@H](CC(=O)O)NC(=O)[C@@H]1CCCN1C(=O)[C@H](CC(=O)O)NC(=O)[C@@H](NC(=O)[C@@H]1CCCN1C(=O)[C@@H](N)CCSC)C(C)C)C(=O)N1CCC[C@H]1C(=O)N[C@@H](CO)C(=O)N[C@@H](CCC(=O)O)C(=O)O |  |  |  |  |  |  |  |  |  |  | 
4 | > 10000 nM | > 10000 nM | > 10000 nM | > 10000 nM | > 10000 nM | CSCC[C@H](NC(=O)[C@H](CCC(=O)O)NC(=O)[C@H](Cc1ccc(O)cc1)NC(=O)[C@H](C)NC(=O)[C@H](CCC(=O)O)NC(=O)[C@H](CC(N)=O)NC(=O)[C@H](CC(=O)O)NC(=O)[C@@H]1CCCN1C(=O)[C@H](CC(=O)O)NC(=O)[C@@H](NC(=O)[C@@H]1CCCN1C(=O)[C@@H](N)CCSC)C(C)C)C(=O)N1CCC[C@H]1C(=O)N[C@@H](COP(=O)(O)O)C(=O)N[C@@H](CCC(=O)O)C(=O)O |  |  |  |  |  |  |  |  |  |  | IC50 (DRB5*01:01): > 10000 nM; IC50 (DRB4*01:01): > 10000 nM
5 |  |  |  |  |  | SVQIVYKPVDLSKVTS (listed as Homo sapiens) | 0.9 | 1.1 | 42.1% | 5460 SFC | 36.8% | 6203 SFC | 4.0% | 731 SFC | 35.8 | 13888 SFC | 
6 |  |  |  |  |  | TPPTREPKKVAVVRTP (listed as Homo sapiens) |  |  |  |  |  |  |  |  |  |  | PD Total Responders (PBMC): 1; PD Total SFC (PBMC): 1707 SFC; Total Responders (PBMC): 1; Total SFC (PBMC): 1707 SFC; HC < 35 Total Responders (PBMC): 0; HC < 35 Total SFC (PBMC): 0 SFC; HC > 50 Total Responders (PBMC; [5]): 0; HC > 50 Total SFC (PBMC; [5]): 0 SFC
7 |  |  |  |  |  | TPPTREPKKVAVVRXP |  |  |  |  |  |  |  |  |  |  | PD Total Responders (PBMC): 4; PD Total SFC (PBMC): 1813 SFC; Total Responders (PBMC): 7; Total SFC (PBMC): 2210 SFC; HC < 35 Total Responders (PBMC): 3; HC < 35 Total SFC (PBMC): 397 SFC; HC > 50 Total Responders (PBMC; [5]): 0; HC > 50 Total SFC (PBMC; [5]): 0 SFC
8 |  |  |  |  |  | TRIPAKTPPAPKTPPS (listed as Homo sapiens) [Tau 16-mer, start 169] | 1.0 | 8.1 | 33.3% | 180 SFC | 33.3% | 145 SFC | 1.1% | 1299 SFC | 5.7 | 3897 SFC | 
9 |  |  |  |  |  | VDLSKVTSKCGSLGNI (listed as Homo sapiens) [Tau 16-mer, start 313] | 2.0 | 7.5 | 28.6% | 897 SFC | 57.1% | 671 SFC | 2.8% | 1409 SFC | 13.2 | 9861 SFC | 
10 |  |  |  |  |  | VYKSPVVSGDTSPRHL (listed as Homo sapiens) [Tau 16-mer, start 393] | 1.0 | 2.6 | 42.9% | 3397 SFC | 42.9% | 8951 SFC | 3.8% | 1915 SFC | 13.2 | 13408 SFC | 
